Experimental findings from US9457005B2, “Compositions and methods for increasing insulin sensitivity” (Orexigen Therapeutics, Inc., priority 2005, dated 2016) are described below.

Test [1] concerns blood glucose levels. The test can be described thus: Insulin tolerance test, naltrexone and bupropion, glucose AUC (Example 8). The following applies: naltrexone 3 mg/kg, bupropion 50 mg/kg. In kind it is in vivo, mice. Here is the method:
(§1) A baseline blood glucose determination was made two hours post-injection. Mice were then given a standard I.P. injection of insulin. Blood glucose levels were then followed for two hours (at 15 min, 30 min, 1 h and 2 h). […] Glucose levels are in mg/dl.
Total areas under the curve (AUC) were calculated based on glucose levels at each time point for each mouse. AUC is a summation of glucose levels observed at each time point.

Test [2] relates to blood glucose levels. The test can be described thus: Blood glucose after olanzapine minipump and zonisamide injections (Example 9). In kind it is in vivo, Female Sprague-Dawley rats. The following applies: rats; olanzapine 1.75 mg/day by minipump, zonisamide 26 mg/kg twice daily; 13 days after olanzapine implant, 6 days after zonisamide injections began; vehicle 92.2. Here is the method:
Female Sprague-Dawley rats, weighing about 235 grams at the start of the experiment were used. […] The rats were subsequently returned to their home cages after recovery. The minipumps delivered 5 μL per hour for 14 days. […] The animals were housed individually and supplied with standard laboratory chow. Food consumed and animal weights were recorded every day. […] Rats were allowed to recover after pump implantation, and then received twice daily injections of zonisamide 26 mg/kg. […] The results are shown below (Table 5).

For test [3], the system named is blood glucose levels. The test can be described thus: Insulin tolerance test, naltrexone and fluoxetine (Example 7). It is filed as in vivo, Mice. The following applies: for Blood glucose, 15 min / Blood glucose, 30 min / Blood glucose, 1 h / Blood glucose, 2 h / Blood glucose, Baseline: individual mice (n=3), I.P. fluoxetine 8.5 mg/kg and/or naltrexone 2.5 mg/kg; for Blood glucose, 15 min: 15 min after I.P. insulin; for Blood glucose, 30 min: 30 min after I.P. insulin; for Blood glucose, 1 h: 1 h after I.P. insulin; for Blood glucose, 2 h: 2 h after I.P. insulin; for Blood glucose, Baseline: baseline two hours post-injection, before I.P. insulin; for Effect on insulin tolerance / insulin resistance (in words): mice, fluoxetine 8.5 mg/kg, naltrexone 2.5 mg/kg I.P., compared with vehicle or either compound alone. Here is the method:
as §1

Each structure is given as a SMILES string. “And” between values parts separate entries of the source, which are not always exact repeats. Equal values may be shown once.

Turning to `CC(NC(C)(C)C)C(=O)c1cccc(Cl)c1` (centres unmarked) [Bupropion, bupropion], the “Total area under the curve (AUC) of glucose levels, each mouse” value in test [1] (individual mice (n=12), summation of glucose levels at each time point) is 13613 and 12038 and 9083 and 14003 and 9668 and 8003 and 8715 (2×). Moreover, the “Decrease in AUC versus vehicle” value in test [1] turned out to be 4.3%. Also, the “Mean AUC as % of vehicle AUC” value in test [1] (vehicle mean=11136.2) is 95.7%.
With `Cc1cc2c(s1)Nc1ccccc1N=C2N1CCN(C)CC1` [Olanzapine, olanzapine], in test [2], the “Blood Glucose, Average” value came out at 120.4 mg/dL.
The same measure, in the same setting: next, `NS(=O)(=O)Cc1noc2ccccc12` [Zonisamide, zonisamide]: 117.6 mg/dL.
As to `CNCCC(Oc1ccc(C(F)(F)F)cc1)c1ccccc1` (centres unmarked) [fluoxetine], in test [3], the “Blood glucose, 15 min” value is 63 mg/dL and 82 mg/dL and 84 mg/dL; the “Blood glucose, 30 min” value is 93 mg/dL and 90 mg/dL and 80 mg/dL; the “Blood glucose, 1 h” value was 118 mg/dL and 138 mg/dL and 89 mg/dL; the “Blood glucose, 2 h” value was 228 mg/dL and 169 mg/dL and 189 mg/dL. Besides, in test [3], the “Blood glucose, Baseline” value is 135 mg/dL and 161 mg/dL and 145 mg/dL; the “Effect on insulin tolerance / insulin resistance (in words)” value is on record as “neither fluoxetine nor naltrexone alone had an effect on insulin tolerance”.
Turning to `O=C1CC[C@@]2(O)[C@H]3Cc4ccc(O)c5c4[C@@]2(CCN3CC2CC2)[C@H]1O5` [naltrexone], in test [3], the “Blood glucose, 15 min” value was 68 mg/dL and 62 mg/dL and 65 mg/dL; the “Blood glucose, 30 min” value is 84 mg/dL and 82 mg/dL and 81 mg/dL; the “Blood glucose, 1 h” value is 80 mg/dL and 127 mg/dL; the “Blood glucose, 2 h” value was 181 mg/dL and 175 mg/dL and 186 mg/dL. Besides, in test [3], the “Blood glucose, Baseline” value is 137 mg/dL and 111 mg/dL and 134 mg/dL; the “Effect on insulin tolerance / insulin resistance (in words)” value was “neither fluoxetine nor naltrexone alone had an effect on insulin tolerance”.
